In experiment [1] the target is GDP-bound NRAS wild-type protein (Homo sapiens, UniProt P01111). Nature of the experiment: Binding to NRAS by surface plasmon resonance (SPR), Single Cycle Kinetics. The note with it: for NRAS/KRAS (ratio of KD value with respect to GDP-bound NRAS wild-type protein to KD value with respect to KRAS): SPR KD ratio NRAS/KRAS, class symbols. On the technique in general: SPR reads the build-up and loss of mass on a sensor chip optically.

Experiment [2] concerns the target GDP-bound HRAS wild-type protein (Homo sapiens, UniProt P01112). In words: Binding to HRAS by surface plasmon resonance (SPR), Single Cycle Kinetics. The note with it: for HRAS/KRAS (ratio of KD value with respect to GDP-bound HRAS wild-type protein to KD value with respect to KRAS): SPR KD ratio HRAS/KRAS, class symbols.
[3] abbreviates: SPR, GDP-bound NRAS wild-type protein vs GDP-bound KRAS wild-type protein.
The mark [4] stands for this setting: SPR, GDP-bound HRAS wild-type protein vs GDP-bound KRAS wild-type protein.

Chain of GDP-bound NRAS wild-type protein (P01111 whole entry): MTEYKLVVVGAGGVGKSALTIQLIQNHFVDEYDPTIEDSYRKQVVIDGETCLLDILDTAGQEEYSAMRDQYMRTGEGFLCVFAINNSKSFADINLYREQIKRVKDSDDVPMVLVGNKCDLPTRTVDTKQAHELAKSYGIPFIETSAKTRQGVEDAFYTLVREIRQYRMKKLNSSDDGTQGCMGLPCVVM
Chain of GDP-bound HRAS wild-type protein (P01112 whole entry): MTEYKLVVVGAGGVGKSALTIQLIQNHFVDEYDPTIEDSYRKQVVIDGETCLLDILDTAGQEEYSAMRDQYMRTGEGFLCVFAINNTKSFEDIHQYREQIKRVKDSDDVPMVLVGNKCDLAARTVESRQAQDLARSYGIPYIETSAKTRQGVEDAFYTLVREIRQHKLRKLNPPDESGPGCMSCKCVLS

As to `CCC[C@H]1C(=O)N[C@@H]([C@@H](C)CC)C(=O)N(C2CC2)CC(=O)N(C)[C@H]2C/C=C\CCN(C2=O)[C@@H](Cc2ccc(C)cc2)C(=O)N(C)CC(=O)N[C@@H](CCc2ccc(C3CC3)c(F)c2)C(=O)N2C[C@H](OCC)C[C@H]2C(=O)NC2(CC(C)(C)C2)C(=O)N(C)[C@@H](C2CCCC2)C(=O)N(C)[C@H](C(=O)N(C)C)CC(=O)N1C` [PP2884], the “NRAS/KRAS (ratio of KD value with respect to GDP-bound NRAS wild-type protein to KD value with respect to KRAS)” value in experiment [1] is “A (a compound having 10 or more and less than 20 is denoted as A)”. For the same molecule, the “HRAS/KRAS (ratio of KD value with respect to GDP-bound HRAS wild-type protein to KD value with respect to KRAS)” value in experiment [2] is “A (a compound having 10 or more and less than 20 is denoted as A)”.
On to `CCC[C@H]1C(=O)N[C@@H](C2CCCCC2)C(=O)N(C)CC(=O)N(C)[C@H]2C/C=C\CCN(C2=O)[C@@H](Cc2ccc(C)cc2)C(=O)N(C)CC(=O)N[C@@H](CCc2ccc(C(F)(F)F)c(Cl)c2)C(=O)N2C[C@H](OCC)C[C@H]2C(=O)NC2(CC(C)(C)C2)C(=O)N(C)[C@@H](CC(C)C)C(=O)N(C)[C@H](C(=O)N(C)C)CC(=O)N1C` [PP3021], for which, in experiment [1] (setting [3]), the “NRAS/KRAS (ratio of KD value for NRAS to KD value for KRAS)” value is recorded as “AA (a compound having 20 or more is denoted as AA)”. Besides, in experiment [2] (setting [4]), the “HRAS/KRAS (ratio of KD value for HRAS to KD value for KRAS)” value is “A (a compound having 10 or more and less than 20 is denoted as A)”.
For the molecule `CCO[C@@H]1C[C@H]2C(=O)NC3(CC(C)(C)C3)C(=O)N(C)[C@@H](C(CC)CC)C(=O)N(C)[C@H](C(=O)N(C)C)CC(=O)N(C)[C@@H](C(C)C)C(=O)N[C@@H]([C@@H](C)CC)C(=O)N(C)CC(=O)N(C)[C@H]3C/C=C\CCN(C3=O)[C@@H](Cc3ccc(C)cc3)C(=O)N(C)CC(=O)N[C@@H](CCc3cc(F)c(C(F)(F)F)c(F)c3)C(=O)N2C1` [PP2153], in experiment [1] (setting [3]), the “NRAS/KRAS (ratio of KD value for NRAS to KD value for KRAS)” value was “A (a compound having 10 or more and less than 20 is denoted as A)”. Further, in experiment [2] (setting [4]), the “HRAS/KRAS (ratio of KD value for HRAS to KD value for KRAS)” value was “A (a compound having 10 or more and less than 20 is denoted as A)”.
Regarding `C=CCN1CC(=O)N(C)[C@H]2C/C=C\CCN(C2=O)[C@@H](Cc2ccc(C)cc2)C(=O)N(C)CC(=O)N[C@@H](CCc2ccc(C(F)(F)F)c(OC)c2)C(=O)N2C[C@H](OCC)C[C@H]2C(=O)NC2(CC(C)(C)C2)C(=O)N(C)[C@@H](C2CCCC2)C(=O)N(C)[C@H](C(=O)N(C)C)CC(=O)N(C)[C@@H](CC(C)C)C(=O)N[C@@H]([C@@H](C)CC)C1=O` [PP2058], the “NRAS/KRAS (ratio of KD value for NRAS to KD value for KRAS)” value in experiment [1] (setting [3]) is “A (a compound having 10 or more and less than 20 is denoted as A)”. The “HRAS/KRAS (ratio of KD value for HRAS to KD value for KRAS)” value in experiment [2] (setting [4]) is “A (a compound having 10 or more and less than 20 is denoted as A)”.
`CCO[C@@H]1C[C@H]2C(=O)NC3(CC(C)(C)C3)C(=O)N(C)[C@@H](C3CCCC3)C(=O)N(C)[C@H](C(=O)N(C)C)CC(=O)N(C)[C@@H](CC(C)C)C(=O)N[C@@H]([C@@H](C)CC)C(=O)N(C)CC(=O)N(C)[C@H]3C/C=C\CCN(C3=O)[C@@H](Cc3ccc(OC)cc3)C(=O)N(C)CC(=O)N[C@@H](CCc3ccc(C(F)(F)F)c(OC)c3)C(=O)N2C1` [PP2693]: the “NRAS/KRAS (ratio of KD value with respect to GDP-bound NRAS wild-type protein to KD value with respect to KRAS)” value in experiment [1] was “A (a compound having 10 or more and less than 20 is denoted as A)”. In experiment [2], the “HRAS/KRAS (ratio of KD value with respect to GDP-bound HRAS wild-type protein to KD value with respect to KRAS)” value is “B (a compound having 3 or more and less than 10 is denoted as B)”.
Regarding `CCC(CC)[C@H]1C(=O)N(C)[C@H](C(=O)N(C)C)CC(=O)N(C)[C@@H](COC)C(=O)N[C@@H]([C@@H](C)CC)C(=O)N(C)CC(=O)N(C)[C@H]2C/C=C\CCN(C2=O)[C@@H](Cc2ccc(C)cc2)C(=O)N(C)CC(=O)N[C@@H](CCc2ccc(C(F)(F)F)c(OC)c2)C(=O)N2CCOC[C@H]2C(=O)NC2(CC(C)(C)C2)C(=O)N1C` [PP2938], the “NRAS/KRAS (ratio of KD value with respect to GDP-bound NRAS wild-type protein to KD value with respect to KRAS)” value in experiment [1] was “AA (a compound having 20 or more is denoted as AA)”. The “HRAS/KRAS (ratio of KD value with respect to GDP-bound HRAS wild-type protein to KD value with respect to KRAS)” value in experiment [2] is “A (a compound having 10 or more and less than 20 is denoted as A)”.
For `CCCCO[C@@H]1C[C@H]2C(=O)NC3(CCC3)C(=O)N(C)[C@@H](C3CCCC3)C(=O)N(C)[C@H](C(=O)N3CCOCC3)CC(=O)N(C)[C@@H](CC(C)C)C(=O)N[C@@H]([C@@H](C)CC)C(=O)N(C)CC(=O)N(C)[C@H]3CCCCN(C3=O)[C@@H](Cc3ccc(C(F)(F)F)cc3)C(=O)N(C)CC(=O)N[C@@H](CCc3cc(F)c(C(F)(F)F)c(F)c3)C(=O)N2C1` [PP1013], the “NRAS/KRAS (ratio of KD value for NRAS to KD value for KRAS)” value in experiment [1] (setting [3]) is “C (A compound having a KD ratio of 0.1 or more and less than 3 is denoted as C)”. Besides, the “HRAS/KRAS (ratio of KD value for HRAS to KD value for KRAS)” value in experiment [2] (setting [4]) was “C (A compound having a KD ratio of 0.1 or more and less than 3 is denoted as C)”.
With `CCC[C@H]1C(=O)N[C@@H]([C@@H](C)CC)C(=O)N(C)CC(=O)N(C)[C@H]2C/C=C\CCN(C2=O)[C@@H](Cc2ccc(C(F)(F)F)cc2)C(=O)N(C)CC(=O)N[C@@H](CCc2cc(C)c(C3CC3)c(C)c2)C(=O)N2C[C@H](OCC)C[C@H]2C(=O)NC2(CC(C)(C)C2)C(=O)N(C)[C@@H](C2CCCC2)C(=O)N(C)[C@H](C(=O)N(C)C)CC(=O)N1C` [PP2863], in experiment [1], the “NRAS/KRAS (ratio of KD value with respect to GDP-bound NRAS wild-type protein to KD value with respect to KRAS)” value was “A (a compound having 10 or more and less than 20 is denoted as A)”. Further, the “HRAS/KRAS (ratio of KD value with respect to GDP-bound HRAS wild-type protein to KD value with respect to KRAS)” value in experiment [2] is “A (a compound having 10 or more and less than 20 is denoted as A)”.
On to `CCC[C@H]1C(=O)N[C@@H]([C@@H](C)CC)C(=O)N(C)CC(=O)N(C)[C@H]2C/C=C\CCN(C2=O)[C@@H](Cc2ccc(C(F)(F)F)cc2)C(=O)N(C)CC(=O)N[C@@H](CCc2cc(C)c(C(F)F)c(C)c2)C(=O)N2C[C@H](OCC)C[C@H]2C(=O)NC2(CC(C)(C)C2)C(=O)N(C)[C@@H](C2CCCC2)C(=O)N(C)[C@H](C(=O)N(C)C)CC(=O)N1C` [PP2857], for which the “NRAS/KRAS (ratio of KD value with respect to GDP-bound NRAS wild-type protein to KD value with respect to KRAS)” value in experiment [1] is “A (a compound having 10 or more and less than 20 is denoted as A)”. Moreover, the “HRAS/KRAS (ratio of KD value with respect to GDP-bound HRAS wild-type protein to KD value with respect to KRAS)” value in experiment [2] is “A (a compound having 10 or more and less than 20 is denoted as A)”.
Take `CC[C@H](C)[C@@H]1NC(=O)[C@H](CC(C)C)N(C)C(=O)C[C@@H](C(=O)N2CCOCC2)N(C)C(=O)[C@H](C2CCCC2)N(C)C(=O)C2(CCCC2)NC(=O)[C@@H]2CCCN2C(=O)[C@H](CCc2cc(F)c(C(F)(F)F)c(F)c2)NC(=O)CN(C)C(=O)[C@H](Cc2ccc(C(F)(F)F)cc2)N2CCCC[C@@H](C2=O)N(C)C(=O)[C@H](CC)N(C)C1=O` [PP0551]: the “NRAS/KRAS (ratio of KD value with respect to NRAS to KD value with respect to KRAS)” value in experiment [1] (setting [3]) is “C (A compound having a KD ratio of 0.1 or more and less than 3 is denoted as C)”. The “HRAS/KRAS (ratio of KD value with respect to HRAS to KD value with respect to KRAS)” value in experiment [2] (setting [4]) was “B (a compound having 3 or more and less than 10 is denoted as B)”.
Take `CCC[C@H]1C(=O)N[C@@H]([C@@H](C)CC)C(=O)N(C)CC(=O)N(C)[C@H]2C/C=C\CCN(C2=O)[C@@H](Cc2ccc(C)cc2)C(=O)N(C)CC(=O)N[C@@H](CCc2cc(F)c(C(F)(F)F)c(F)c2)C(=O)N2C[C@H](OCC)C[C@H]2C(=O)NC2(CC(C)(C)C2)C(=O)N(C)[C@@H](CC2CC2)C(=O)N(C)[C@H](C(=O)N(C)C)CC(=O)N1C` [PP2797]: in experiment [1], the “NRAS/KRAS (ratio of KD value with respect to GDP-bound NRAS wild-type protein to KD value with respect to KRAS)” value was “A (a compound having 10 or more and less than 20 is denoted as A)”. For the same molecule, in experiment [2], the “HRAS/KRAS (ratio of KD value with respect to GDP-bound HRAS wild-type protein to KD value with respect to KRAS)” value was “A (a compound having 10 or more and less than 20 is denoted as A)”.

Values taken from US20240158446A1, “CYCLIC COMPOUND HAVING SELECTIVE INHIBITORY ACTION ON KRAS OVER HRAS AND NRAS” (CHUGAI SEIYAKU KABUSHIKI KAISHA, priority 2021, published 2024).
